Here are results for 27 compounds from patent US20240034736A1, “HSD17B13 INHIBITORS AND USES THEREOF” (FL2022-001, Inc., priority 2020, published 2024).

Molecules are shown by their SMILES. Bounds are passed on as bounds.

Recombinant human HSD17B13 enzyme, sequence (Q7Z5P4 20-300): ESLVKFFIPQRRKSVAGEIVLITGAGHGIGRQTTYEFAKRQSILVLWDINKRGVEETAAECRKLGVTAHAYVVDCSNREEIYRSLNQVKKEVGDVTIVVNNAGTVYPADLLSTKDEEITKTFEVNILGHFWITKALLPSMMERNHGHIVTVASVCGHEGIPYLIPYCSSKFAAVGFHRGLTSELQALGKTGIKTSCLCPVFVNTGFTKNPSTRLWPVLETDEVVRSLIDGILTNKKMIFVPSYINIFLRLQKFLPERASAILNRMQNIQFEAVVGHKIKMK

One assay concerns the target Recombinant human HSD17B13 enzyme (Homo sapiens (Human), UniProt Q7Z5P4). The assay is described as follows: HSD17b13 NAD(P)H-Glo Biochemical Assay. The settings on record: 50 uM estradiol, 1 mM NAD+; read-out: HSD17β13 IC50. Summed up: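 Luminescent NAD(P)H-Glo detection (1 h, RT) quantified cofactor reduction after a 3 h, 37° C reaction of human HSD17B13 with estradiol (50 uM final) and NAD+ (1 mM final). Compounds were first pre-incubated 20 min at RT with enzyme in Tris pH 7.4 buffer containing Tween-20 and BSA.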
What is called IC50 is the concentration that gives 50% inhibition. On to `Cc1cc(-c2ccc3c(cnn3-c3ccc(F)c(O)c3)c2)ccc1O` [Compound 5.02, 4-(1-(4-Fluoro-3-hydroxyphenyl)-1H-indazol-5-yl)-2-methylphenol], for which the IC50 fell in the range of 100 to 1000 nM. The same measure, in the same setting: then `CS(=O)(=O)N1CCC(c2ccc3c(cnn3-c3ccc(F)c(O)c3)c2)CC1` [Compound 26.01, 2-Fluoro-5-(5-(1-(methyl-sulfonyl)piperidin-4-yl)-1H-indazol-1-yl)phenol], with 1000 to 30000 nM; and `Oc1cccc(-c2ccc3c(cnn3-c3ccc(F)c(O)c3)c2)c1` [Compound 4.03, 2-Fluoro-5-(5-(3-hydroxyphenyl)-1H-indazol-1-yl)phenol], with 100 to 1000 nM. With `Oc1cc(-n2ncc3cc(-c4ccc(O)c(Cl)c4)ncc32)ccc1F` [Compound 4.13, 2-Chloro-4-(1-(4-fluoro-3-hydroxyphenyl)-1H-pyrazolo[3,4-c]pyridine-5-yl)phenol], the half-inhibitory concentration (IC50) was 100 to 1000 nM. The same measure, in the same setting: next, `Oc1cc(-n2ncc3cc(-c4ccc(O)c(Cl)c4)ccc32)ccc1F` [Compound 5, 2-Chloro-4-(1-(4-fluoro-3-hydroxyphenyl)-1H-indazol-5-yl)phenol]: 100 to 1000 nM. The same measure, in the same setting: next, `COc1ccc(-c2ccc3c(cnn3-c3ccc(F)c(O)c3)c2)cc1` [Compound 5.22, 2-Fluoro-5-(5-(4-methoxyphenyl)-1H-indazol-1-yl)phenol]: 100 to 1000 nM; `COC1CCN(c2cc3cnn(-c4cc(O)c(F)c(F)c4)c3cc2Cl)CC1` [Compound 21.21, 5-(6-Chloro-5-(4-methoxy-piperidin-1-yl)-1H-indazol-1-yl)-2,3-difluorophenol]: 100 to 1000 nM; `CS(=O)(=O)N1CCN(c2cc3cnn(-c4cc(O)cc(C(F)(F)F)c4)c3cn2)CC1` [Compound 19.16, 3-(5-(4-(Methylsulfonyl)piperazin-1-yl)-1H-pyrazolo[3,4-c]pyridine-1-yl)-5-(trifluoromethyl)phenol]: 1000 to 30000 nM.

With `Oc1ccc(F)c(-n2ncc3cc(-c4ccc(O)c(Cl)c4)ccc32)c1` [Compound 1, 2-Chloro-4-(1-(2-fluoro-5-hydroxyphenyl)-1H-indazol-5-yl)phenol], the IC50 was 1000 to 30000 nM. For `CNC(=O)N1CCC(c2ccc3c(cnn3-c3ccc(F)c(O)c3)c2)CC1` [Compound 26.02, 4-(1-(4-Fluoro-3-hydroxy-phenyl)-1H-indazol-5-yl)-N-methylpiperidine-1-carboxamide], the 50% inhibitory concentration (IC50) is 100 to 1000 nM. As to `COC1CCN(c2cc3c(C)nn(-c4cc(C(F)(F)F)c(F)c(O)c4F)c3cn2)CC1` [Compound 19.51, 2,6-Difluoro-3-(5-(4-methoxypiperidin-1-yl)-3-methyl-1H-pyrazolo[3,4-c]pyridine-1-yl)-5-(trifluoromethyl)phenol], the IC50 lay within 100 to 1000 nM. On to `CS(=O)(=O)N1CCN(c2cc3cnn(-c4cc(O)c(F)c(F)c4)c3cc2C#N)CC1` [Compound 21.23, 1-(3,4-Difluoro-5-hydroxy-phenyl)-5-(4-(methylsulfonyl)-piperazin-1-yl)-1H-indazole-6-carbonitrile], for which the IC50 was in the range of 100 to 1000 nM. For `CC1(C)CN(S(C)(=O)=O)CCN1c1ccc2c(cnn2-c2cc(O)c(F)c(C(F)(F)F)c2)c1` [Compound 21.48, 5-(5-(2,2-Dimethyl-4-(methyl-sulfonyl)piperazin-1-yl)-1H-indazol-1-yl)-2-fluoro-3-(trifluoromethyl)phenol], the IC50 was 1000 to 30000 nM. Same read-out and setting: next, `CS(=O)(=O)C1CN(c2ccc3c(cnn3-c3cc(O)c(F)c(F)c3)c2)C1` [Compound 21.31, 2,3-Difluoro-5-(5-(3-(methyl-sulfonyl)azetidin-1-yl)-1H-indazol-1-yl)phenol]: 100 to 1000 nM; `Cc1nn(-c2cc(O)c(F)c(C(F)(F)F)c2)c2cnc(N3CCN(S(C)(=O)=O)CC3)cc12` [Compound 21.50, 2-Fluoro-5-(3-methyl-5-(4-(methylsulfonyl)piperazin-1-yl)-1H-pyrazolo[3,4-c]-pyridine-1-yl)-3-(trifluoro-methyl)phenol]: 100 to 1000 nM; `CS(=O)(=O)N1CCN(c2cc3cnn(-c4ccc(Cl)c(O)c4F)c3cn2)CC1` [Compound 19.27, 6-Chloro-2-fluoro-3-(5-(4-(methylsulfonyl)piperazin-1-yl)-1H-pyrazolo[3,4-c]pyridine-1-yl)phenol]: 1000 to 30000 nM. On the same count and under the same terms, next, `Cc1n[nH]c(C)c1-c1ccc2c(cnn2-c2ccc(F)c(O)c2)c1` [Compound 5.17, 5-(5-(3,5-Dimethyl-1H-pyrazol-4-yl)-1H-indazol-1-yl)-2-fluorophenol]: 100 to 1000 nM; `Oc1cc(-n2ncc3cc(-c4ccc(OC(F)F)cc4Cl)ccc32)ccc1F` [Compound 5.08, 5-(5-(2-Chloro-4-(difluoromethoxy)phenyl)-1H-indazol-1-yl)-2-fluorophenol]: 100 to 1000 nM; `Cc1nn(-c2cc(C(F)(F)F)c(F)c(O)c2F)c2cnc(N(C)C3CCOCC3)cc12` [Compound 19.47, 2,6-Difluoro-3-(3-methyl-5-(methyl(tetrahydro-2H-pyran-4-yl)amino)-1H-pyrazolo[3,4-c]pyridin-1-yl)-5-(trifluoromethyl)phenol]: under 100 nM. As to `COC1CN(c2ccc3c(cnn3-c3cc(O)c(F)c(F)c3)c2)C1` [Compound 21.25, 2,3-Difluoro-5-(5-(3-methoxy-azetidin-1-yl)-1H-indazol-1-yl)phenol], the half-maximal inhibitory concentration (IC50) lay within 1000 to 30000 nM. The same measure, in the same setting: next, `CS(=O)(=O)N1CCN(c2cc3cnn(-c4cc(F)c(F)c(O)c4F)c3cn2)CC1` [Compound 19.29, 2,3,6-Trifluoro-5-(5-(4-(methylsulfonyl)piperazin-1-yl)-1H-pyrazolo[3,4-c]pyridine-1-yl)phenol]: 100 to 1000 nM; `CS(=O)(=O)N1CCN(c2ccc3nn(-c4cc(O)cc(C(F)(F)F)n4)cc3c2)CC1` [Compound 31.03, 2-(5-(4-(Methylsulfonyl)-piperazin-1-yl)-2H-indazol-2-yl)-6-(trifluoromethyl)-pyridin-4-ol]: 1000 to 30000 nM. Still for that read-out and setting: then `CC1(C)CN(S(C)(=O)=O)CCN1c1cc2cnn(-c3cc(O)c(F)c(C(F)(F)F)c3)c2cn1` [Compound 19.04, 5-(5-(2,2-Dimethyl-4-(methylsulfonyl)piperazin-1-yl)-1H-pyrazolo[3,4-c]pyridine-1-yl)-2-fluoro-3-(trifluoromethyl)phenol], with 100 to 1000 nM. Still for that read-out and setting: next, `CS(=O)(=O)N1CCN(c2cc3cnn(-c4ccc(F)c(O)c4)c3cn2)CC1` [Compound 19.09, 2-Fluoro-5-(5-(4-(methylsulfonyl)piperazin-1-yl)-1H-pyrazolo[3,4-c]pyridine-1-yl)phenol]: 1000 to 30000 nM; `CC1(C)COCCN1c1cc2cnn(-c3cc(O)c(F)c(C(F)(F)F)c3)c2cn1` [Compound 19.32, 5-(5-(3,3-Dimethylmorpholino)-1H-pyrazolo[3,4-c]pyridine-1-yl)-2-fluoro-3-(trifluoromethyl)phenol]: 100 to 1000 nM.

Still in this assay, the particulars now being: read-out: HSD17β13 inhibition at 30 uM.
The inhibition is the share of the control response that was lost under treatment. In the case of `COC(=O)c1cc2cc(N3CCN(S(C)(=O)=O)CC3)ccc2n1-c1ccc(F)c(O)c1` [Compound 21.62, Methyl 1-(4-fluoro-3-hydroxy-phenyl)-5-(4-(methylsulfonyl)-piperazin-1-yl)-1H-indole-2-carboxylate], the inhibition at 30 µM was under 20%.

The same assay, now with this note: read-out: HSD17β13 inhibition at 100 uM.
`CC(=O)N1CCN(c2ccc3c(cnn3-c3ccc(F)c(O)c3)c2)CC1` [Compound 20.05, 1-(4-(1-(4-Fluoro-3-hydroxyphenyl)-1H-indazol-5-yl)piperazin-1-yl)ethan-1-one]: the inhibition at 100 µM was under 20%.
